Assay results published in patent publication US7288542B2, “Non-nucleoside reverse transcriptase inhibitors” (Roche Palo Alto LLC, priority 2004, dated 2007).
Counter-ions that a name gives are not always drawn.

Experiment: Oral pharmacokinetics in rats: plasma concentration of active nnRTI after gavage of prodrug or parent (Example 8)
Format: in vivo
Conditions: parent compound dosed p.o. at 50 mg/kg
Protocol: dose equivalent to (0.127 mmol) was administered orally by gavage. A blood sample (0.3 mL) was collected from the […] at 0.5, 1, 2, 3, 4, 6 and 8 hours after via the jugular cannula. A sample of at least 0.3 mL of blood was withdrawn from the untreated animals 3 h after dosing. After 24 h from dosing, as much blood as possible was collected from all treated and control animals. Potassium oxalate/NaF was added to the samples which were stored on ice during sampling procedure. The samples were spun in a refrigerated centrifuge at […] as soon as possible and the plasma samples were stored −20° C. immediately after centrifugation amd later transferred to a −80° C. freezer until analysis. The concentration of test compound was determined by hplc.

| Structure (SMILES) | AUC (total amount of active nnRTI absorbed) |
| --- | --- |
| Cc1cc(Cc2ccc(Cl)c(Oc3cc(C#N)cc(C#N)c3)c2F)n[nH]c1=O [Compound 10, 5-[6-chloro-2-fluoro-3-(5-methyl-6-oxo-1,6-dihydro-pyridazin-3-ylmethyl)-phenoxy]-isophthalonitrile] | 8100 ng·h/mL |
| Cc1cc(Cc2ccc(Cl)c(Oc3cc(Cl)cc(C#N)c3)c2F)n[nH]c1=O [Compound 11, 3-chloro-5-[6-chloro-2-fluoro-3-(5-methyl-6-oxo-1,6-dihydro-pyridazin-3-ylmethyl)-phenoxy]-benzonitrile] | 30000 ng·h/mL |

Same assay, conditions: rat, plasma, po, parent compound dosed p.o. at 50 mg/kg, read-out: Cmax (peak concentration of active nnRTI) (converted)

| Structure (SMILES) | Cmax |
| --- | --- |
| Cc1cc(Cc2ccc(Cl)c(Oc3cc(C#N)cc(C#N)c3)c2F)n[nH]c1=O [Compound 10, 5-[6-chloro-2-fluoro-3-(5-methyl-6-oxo-1,6-dihydro-pyridazin-3-ylmethyl)-phenoxy]-isophthalonitrile] | 600 ng/mL |
| Cc1cc(Cc2ccc(Cl)c(Oc3cc(Cl)cc(C#N)c3)c2F)n[nH]c1=O [Compound 11, 3-chloro-5-[6-chloro-2-fluoro-3-(5-methyl-6-oxo-1,6-dihydro-pyridazin-3-ylmethyl)-phenoxy]-benzonitrile] | 2300 ng/mL |

Experiment: not given
Conditions: not given

| Structure (SMILES) | melting point |
| --- | --- |
| Cc1cc(Cc2ccc(Cl)c(Oc3cc(C#N)cc(C(F)F)c3)c2F)nn(COC(=O)CCC(=O)O)c1=O [Compound I-28, Succinic acid mono-{3-[4-chloro-3-(3-cyano-5-difluoromethyl-phenoxy)-2-fluoro-benzyl]-5-methyl-6-oxo-6H-pyridazin-1-ylmethyl}ester] | 154.3 to 156.9 °C |
| Cc1cc(Cc2ccc(Cl)c(Oc3cc(C#N)cc(C#N)c3)c2F)nn(COC(=O)CCC(=O)O)c1=O [Compound I-8, Succinic acid mono-{3-[4-chloro-3-(3,5-dicyano-phenoxy)-2-fluoro-benzyl]-5-methyl-6-oxo-6H-pyridazin-1-ylmethyl}ester] | 167 to 171.5 °C |
| N#Cc1cc(F)cc(Oc2c(Cl)ccc(Cc3ccc(=O)n(CO)n3)c2F)c1 [Compound I-29] | 100.5 to 103.8 °C |
| Cc1cc(Cc2ccc(Cl)c(Oc3cc(C#N)cc(C#N)c3)c2F)nn(COP(=O)(O)O)c1=O (as salt: sodium) (hydrate or solvate) [Compound I-23, Phosphoric acid mono-{3-[4-chloro-3-(3,5-dicyano-phenoxy)-2-fluoro-benzyl]-5-methyl-6-oxo-6H-pyridazin-1-ylmethyl}ester disodium salt] | 193.7 to 197.2 °C |
| Cc1cc(Cc2ccc(Cl)c(Oc3cc(C#N)cc(C(F)F)c3)c2F)nn(CO)c1=O [Compound I-27] | 113.9 to 117.3 °C |
| Cc1cc(Cc2ccc(Cl)c(Oc3cc(C#N)cc(C#N)c3)c2F)nn(CO)c1=O [Compound I-1, 5-[6-Chloro-2-fluoro-3-(1-hydroxymethyl-5-methyl-6-oxo-1,6-dihydro-pyridazin-3-ylmethyl)-phenoxyl]-isophthalonitrile] | 172 to 179 °C |
| N#Cc1cc(F)cc(Oc2c(Cl)ccc(Cc3ccc(=O)n(COC(=O)CCC(=O)O)n3)c2F)c1 [Compound I-30, Succinic acid mono-{3-[4-chloro-3-(3-cyano-5-fluoro-phenoxy)-2-fluoro-benzyl]-6-oxo-6H-pyridazin-1-ylmethyl}ester] | 133.9 to 137 °C |
| Cc1cc(Cc2ccc(Cl)c(Oc3cc(C#N)cc(C#N)c3)c2F)nn(COC(=O)[C@@H](N)C(C)C)c1=O (as salt: hydrochloride) [Compound I-5, (S)-1-{3-[4-Chloro-3-(3,5-dicyano-phenoxy)-2-fluoro-benzyl]-5-methyl-6-oxo-6H-pyridazin-1-ylmethoxycarbonyl}-2-methyl-propyl-ammonium; chloride] | 176.7 to 178.3 °C |
| Cc1cc(Cc2ccc(Cl)c(Oc3cc(C#N)cc(C#N)c3)c2F)nn(COC(=O)OCCN(C)C)c1=O (as salt: HCl) [Compound I-18, Carbonic acid 3-[4-chloro-3-(3,5-dicyano-phenoxy)-2-fluoro-benzyl]-5-methyl-6-oxo-6H-pyridazin-1-ylmethyl ester 2-dimethylamino-ethyl ester] | 75 to 90 °C |
